Here are results for 32 compounds from US9265773B2, “Tetracyclic heterocycle compounds and methods of use thereof for the treatment of viral diseases” (priority 2011, dated 2016).

One assay concerns HCV replicon genotype 1a. The assay can be described thus: microbe, parasite or virus in culture. The class given is cell-based. The following applies: genotype 1a replicon cells, incubated 96 hours, NS3/4A ELISA readout. On the technique in general: Replicon systems follow genome replication, usually without infectious particles.
Another assay has as its system HCV replicon genotype 1b. Nature of the assay: microbe, parasite or virus in culture. The class given is cell-based. The following applies: genotype 1b replicon cells, incubated 96 hours, NS3/4A ELISA readout.

The structures appear in SMILES notation.

A word on the IC50: it is the point on the concentration scale where inhibition reaches its midpoint. Turning to `CNC(=O)c1c(-c2ccc(F)cc2)oc2cc(N(C)S(C)(=O)=O)c(-c3ccc4c(c3)-c3cc5ccccc5n3CC(NCCN3CCOCC3)CO4)cc12` (stereo not shown) [Compound 83], the IC50 came to 15 nM with HCV replicon genotype 1a (Hepatitis C virus, 96 h) and 12 nM in the assay on HCV replicon genotype 1b (Hepatitis C virus, 96 h).
Take `CNC(=O)c1c(-c2ccc(F)cc2)oc2cc(N(C)S(C)(=O)=O)c(-c3ccc4c(n3)-c3nc5cccnc5n3CO4)cc12` [Compound 137]: the IC50 in the assay on HCV replicon genotype 1a (Hepatitis C virus, 96 h) stood at 44 nM; in the assay on HCV replicon genotype 1b (Hepatitis C virus, 96 h) it was 7.9 nM.
On to `CNC(=O)c1c(-c2ccc(F)cc2)oc2cc(N(C)S(C)(=O)=O)c(-c3ccc4c(c3)-c3cc5ccccc5n3CC(N(C)CCO)CO4)cc12` (stereo not shown) [Compound 86], for which the IC50 in the assay with HCV replicon genotype 1a (Hepatitis C virus, 96 h) was 17 nM; in the assay on HCV replicon genotype 1b (Hepatitis C virus, 96 h), 12 nM.
Take `CNC(=O)c1c(-c2ccc(F)cc2)oc2cc(N(CCF)S(C)(=O)=O)c(-c3ccc4c(n3)-c3cc5c(F)cccc5n3CO4)cc12` [Compound 190]: the IC50 turned out to be 2.8 nM in the assay on HCV replicon genotype 1a (Hepatitis C virus, 96 h) and 3.8 nM in the assay on HCV replicon genotype 1b (Hepatitis C virus, 96 h).
For `CCNC(=O)C1Oc2ccc(-c3cc4c(C(=O)NC)c(-c5ccc(F)cc5)oc4cc3N(C)S(C)(=O)=O)nc2-c2cc3c(F)cccc3n21` (stereo not shown) [Compound 107], the IC50 came to 1.5 nM in the assay with HCV replicon genotype 1a and 0.7 nM in the assay with HCV replicon genotype 1b.
For the compound `CNC(=O)c1c(-c2ccc(F)cc2)oc2cc(N(C)S(C)(=O)=O)c(-c3ccc4c(n3)-c3cc5c(F)cccc5n3C(c3ccccc3)O4)cc12` (stereo not shown) [Compound 51, 5-(11-fluoro-6-phenyl-6H-pyrido[2′,3′:5,6][1,3]oxazino[3,4-a]indol-2-yl)-2-(4-fluorophenyl)-N-methyl-6-(N-methylmethylsulfonamido)benzofuran-3-carboxamide], the IC50 in the assay with HCV replicon genotype 1a (Hepatitis C virus, 96 h) worked out at 17 nM; in the assay with HCV replicon genotype 1b (Hepatitis C virus, 96 h), 33 nM.
Take `CCOC(=O)N(C)C(=O)c1c(-c2ccc(F)cc2)oc2cc(N(C)S(C)(=O)=O)c(-c3ccc4c(n3)-c3cc5c(F)cccc5n3CO4)cc12` [Compound 208, Ethyl (5-(11-fluoro-6H-pyrido[2′,3′:5,6][1,3]oxazino[3,4-a]indol-2-yl)-2-(4-fluorophenyl)-6-(N-methylmethylsulfonamido)benzofuran-3-carbonyl)(methyl)carbamate]: the IC50 with HCV replicon genotype 1a (Hepatitis C virus, 96 h) was determined as 42 nM; in the assay with HCV replicon genotype 1b (Hepatitis C virus, 96 h), 122 nM.
Consider `CNC(=O)c1c(-c2ccc(F)cc2)oc2cc(N(C)S(C)(=O)=O)c(-c3cc4c(cn3)OC(CO)n3c-4cc4c(F)cccc43)cc12` (stereo not shown) [Compound 90], for which the figures for the IC50 with HCV replicon genotype 1a and in the assay with HCV replicon genotype 1b were 5.5 nM and 2.4 nM, respectively.
Regarding `CNC(=O)c1c(-c2ccc(F)cc2)oc2cc(N(C)S(C)(=O)=O)c(-c3nc4c(cc3OC)OCn3c-4cc4c(F)cccc43)cc12` [Compound 36], the IC50 with HCV replicon genotype 1a (Hepatitis C virus, 96 h) is 1.7 nM; with HCV replicon genotype 1b (Hepatitis C virus, 96 h) it was 7.1 nM.
The like results for `CNC(=O)c1c(-c2ccc(F)cc2)oc2cc(N(C)S(C)(=O)=O)c(-c3ncc4c(n3)-c3cc5c(F)cccc5n3CO4)cc12` [Compound 5] were, in that order, 1 nM and 2 nM.
Take `CNC(=O)c1c(-c2ccc(F)cc2)oc2cc(N(CC(F)F)S(C)(=O)=O)c(-c3ccc4c(n3)-c3cc5ccccc5n3CO4)cc12` [Compound 185]: the IC50 came to 7.9 nM in the assay with HCV replicon genotype 1a (Hepatitis C virus, 96 h) and 16 nM in the assay with HCV replicon genotype 1b (Hepatitis C virus, 96 h).
As for `CNC(=O)c1c(-c2ccc(F)cc2)oc2cc(N(C)S(C)(=O)=O)c(-c3ccc4c(n3)-c3cc5cc(F)cc(F)c5n3CO4)cc12` [Compound 19], the IC50 with HCV replicon genotype 1a (Hepatitis C virus, 96 h) is 19 nM; in the assay on HCV replicon genotype 1b (Hepatitis C virus, 96 h) it was 21 nM.
The matching figures for `CONC(=O)c1c(-c2ccc(F)cc2)oc2cc(N(C)S(C)(=O)=O)c(-c3ccc4c(n3)-c3cc5c(F)cccc5n3CO4)cc12` [Compound 153]: 2.5 nM and 4.9 nM.
The matching figures for `CN(c1cc2oc(-c3ccc(F)cc3)c(C(=O)NCCO)c2cc1-c1ccc2c(n1)-c1cc3c(F)cccc3n1CO2)S(C)(=O)=O` [Compound 151, 5-(11-fluoro-6H-pyrido[2′,3′:5,6][1,3]oxazino[3,4-a]indol-2-yl)-2-(4-fluorophenyl)-N-(2-hydroxyethyl)-6-(N-methylmethylsulfonamido)benzofuran-3-carboxamide]: 4.3 nM and 5.9 nM.
As to `COC(=O)C(=O)N(C)C(=O)c1c(-c2ccc(F)cc2)oc2cc(N(C)S(C)(=O)=O)c(-c3ccc4c(n3)-c3cc5c(F)cccc5n3CO4)cc12` [Compound 209, methyl 2-(5-(11-fluoro-6H-pyrido[2′,3′:5,6][1,3]oxazino[3,4-a]indol-2-yl)-2-(4-fluorophenyl)-N-methyl-6-(N-methylmethylsulfonamido)benzofuran-3-carboxamido)-2-oxoacetate], the IC50 in the assay on HCV replicon genotype 1a (Hepatitis C virus, 96 h) was determined as 0.6 nM; in the assay on HCV replicon genotype 1b (Hepatitis C virus, 96 h) it was 2.6 nM.
The matching figures for `CNC(=O)c1c(-c2ccc(F)cc2)oc2cc(N(C)S(C)(=O)=O)c(-c3ccc4c(c3)-c3cc5ccccc5n3CC(O)CO4)cc12` (stereo not shown) [Compound 75, 2-(4-fluorophenyl)-5-(7-hydroxy-7,8-dihydro-6H-benzo[2,3][1,5]oxazocino[5,4-a]indol-2-yl)-N-methyl-6-(N-methylmethylsulfonamido)benzofuran-3-carboxamide]: 2.8 nM and 2.6 nM.
The matching figures for `CNC(=O)c1c(-c2ccc(F)cc2)oc2cc(N(C)S(C)(=O)=O)c(-c3ccc4c(n3)-c3cc5c(F)cncc5n3CO4)cc12` [Compound 46, 5-(11-fluoro-6H-pyrido[2,3-e]pyrido[4′,3′:4,5]pyrrolo[1,2-c][1,3]oxazin-2-yl)-2-(4-fluorophenyl)-N-methyl-6-(N-methylmethylsulfonamido)benzofuran-3-carboxamide]: 1.5 nM and 2.1 nM.
The like results for `CNC(=O)c1c(-c2ccc(F)cc2)oc2cc(N(C)S(C)(=O)=O)c(-c3ccc4c(n3)-c3c(C#N)c5ccccc5n3CO4)cc12` [Compound 60, 5-(12-cyano-6H-pyrido[2′,3′:5,6][1,3]oxazino[3,4-a]indol-2-yl)-2-(4-fluorophenyl)-N-methyl-6-(N-methylmethylsulfonamido)benzofuran-3-carboxamide] were, in that order, 69 nM and 31 nM.
Turning to `CNC(=O)c1c(-c2ccc(F)cc2)oc2cc(N(CCCF)S(C)(=O)=O)c(-c3ccc4c(n3)-c3cc5ccccc5n3CO4)cc12` [Compound 187], the IC50 in the assay with HCV replicon genotype 1a (Hepatitis C virus, 96 h) was 7.5 nM; with HCV replicon genotype 1b (Hepatitis C virus, 96 h), 9.4 nM.
Regarding `CNC(=O)c1c(-c2ccc(F)cc2)oc2cc(N(C)S(C)(=O)=O)c(-c3ccc4c(n3)-c3cc5ncccc5n3CO4)cc12` [Compound 44], the IC50 is 2.8 nM in the assay with HCV replicon genotype 1a (Hepatitis C virus, 96 h) and 2.4 nM with HCV replicon genotype 1b (Hepatitis C virus, 96 h).
The matching figures for `CNC(=O)c1c(-c2ccc(F)cc2)oc2cc(N(C)S(C)(=O)=O)c(-c3ccc4c(c3)-c3cc5ccccc5n3CC(NCCO)CO4)cc12` (stereo not shown) [Compound 85]: 13 nM and 7.7 nM.
The like results for `CNC(=O)c1c(-c2ccc(F)cc2)oc2cc(N(C)S(C)(=O)=O)c(-c3ncc4c(n3)-c3cc5ccccc5n3CCO4)cc12` [Compound 7] were, in that order, 2.4 nM and 1.6 nM.
The matching figures for `CNC(=O)c1c(-c2ccc(F)cc2)oc2cc(N(C)S(C)(=O)=O)c(-c3ccc4c(c3)-c3nc5ccccn5c3CCO4)cc12` [Compound 145, 5-(6,7-dihydrobenzo[2′,3′]oxepino[4′,5′:4,5]imidazo[1,2-a]pyridin-2-yl)-2-(4-fluorophenyl)-N-methyl-6-(N-methylmethylsulfonamido)benzofuran-3-carboxamide]: 5.3 nM and 2.7 nM.
With `CNC(=O)c1c(-c2ccc(F)cc2)oc2cc(N3CCNC3=O)c(-c3ccc4c(n3)-c3cc5c(F)cccc5n3CO4)cc12` [Compound 177, 5-(11-fluoro-6H-pyrido[2′,3′:5,6][1,3]oxazino[3,4-a]indol-2-yl)-2-(4-fluorophenyl)-N-methyl-6-(2-oxoimidazohdin-1-yl)benzofuran-3-carboxamide], the IC50 in the assay on HCV replicon genotype 1a (Hepatitis C virus, 96 h) was 4.6 nM; in the assay with HCV replicon genotype 1b (Hepatitis C virus, 96 h) it was 4 nM.
For `CNC(=O)c1c(-c2ccc(F)cc2)oc2cc(N(C)S(C)(=O)=O)c(-c3ccc4c(c3)-c3nc5ccc(F)cn5c3CO4)cc12` [Compound 143], the IC50 was 15 nM in the assay on HCV replicon genotype 1a (Hepatitis C virus, 96 h) and 8 nM in the assay on HCV replicon genotype 1b (Hepatitis C virus, 96 h).
The like results for `CNC(=O)c1c(-c2ccc(F)cc2)oc2cc(N(C)S(C)(=O)=O)c(-c3ccc4c(c3)-c3[nH]c5ccccc5c3C(C(C)(C)C)O4)cc12` (stereo not shown) [Compound 64] were, in that order, 71 nM and 44 nM.
The matching figures for `CNC(=O)c1c(-c2ccc(F)cc2)oc2cc(N(C)S(C)(=O)=O)c(-c3ncc4c(n3)-c3cc5c(F)c(F)ccc5n3CO4)cc12` [Compound 30]: 1 nM and 2.1 nM.
Consider `CNC(=O)c1c(-c2ccc(F)cc2)oc2cc(N(C)S(C)(=O)=O)c(-c3cnc4c(c3)-c3nc5c(n3CO4)CCCC5)cc12` [Compound 141, 2-(4-fluorophenyl)-N-methyl-6-(N-methylmethylsulfonamido)-5-(8,9,10,11-tetrahydro-6H-benzo[4,5]imidazo[1,2-c]pyrido[3,2-e][1,3]oxazin-2-yl)benzofuran-3-carboxamide], for which the IC50 stood at 2.4 nM in the assay on HCV replicon genotype 1a (Hepatitis C virus, 96 h) and 2.4 nM in the assay on HCV replicon genotype 1b (Hepatitis C virus, 96 h).
As to `CNC(=O)c1c(-c2ccc(F)cc2)oc2cc(N(C)S(C)(=O)=O)c(-c3ccc4c(n3)-c3cc5c(F)cccc5n3C(COC)O4)cc12` (stereo not shown) [Compound 95], the IC50 was found to be 3.2 nM with HCV replicon genotype 1a (Hepatitis C virus, 96 h) and 5.3 nM in the assay on HCV replicon genotype 1b (Hepatitis C virus, 96 h).
In the case of `CNC(=O)c1c(-c2ccc(F)cc2)oc2cc(N(C)S(C)(=O)=O)c(-c3ncc4c(n3)-c3cc5cc(F)ccc5n3CO4)cc12` [Compound 6], the IC50 with HCV replicon genotype 1a (Hepatitis C virus, 96 h) came to 1.5 nM; in the assay on HCV replicon genotype 1b (Hepatitis C virus, 96 h) it was 2.3 nM.
On to `CNC(=O)c1c(-c2ccc(F)cc2)oc2cc(N(C)S(C)(=O)=O)c(-c3nc4c(cc3C)OCn3c-4cc4c(F)cccc43)cc12` [Compound 32], for which the 50% inhibitory concentration (IC50) in the assay with HCV replicon genotype 1a (Hepatitis C virus, 96 h) came out at 5.7 nM; in the assay on HCV replicon genotype 1b (Hepatitis C virus, 96 h) it was 19 nM.
Regarding `CN(c1cc2oc(-c3ccc(F)cc3)c(C(=O)NC3COC3)c2cc1-c1ccc2c(n1)-c1cc3c(F)cccc3n1CO2)S(C)(=O)=O` [Compound 152], the IC50 in the assay with HCV replicon genotype 1a (Hepatitis C virus, 96 h) came to 14 nM; in the assay with HCV replicon genotype 1b (Hepatitis C virus, 96 h) it was 15 nM.
